Measured values from US8962808B2, “EGFR-related polypeptides and methods of use” (The Research Foundation for the State University of New York, priority 2010, dated 2015).

Key:
[1] = tested on: cancer cells with EGFRvIII expression; conditions: literature reports; cited from earlier work
[2] = tested on: non-small cell lung cancer; conditions: NSCLC patients with activating mutations in the EGFR tyrosine kinase domain; cited from earlier work
NIH 3T3 cells = test: Western blot of phosphorylation of GFP-tagged EGFRΔ[…] versus WT-EGFR in NIH 3T3 cells; format: cell-based; conditions: no ligand, FIG. 7A
Excerpt: Dafna Bar-Sagi). Then, we subcloned the novel extracellular deletion mutant Δ[…] into this vector. […]

SY5Y = test: IP-western of phosphorylation status of GFP-tagged EGFR mutants in SY5Y cells; format: cell-based, human; conditions: anti-GFP IP, higher than EGFRvIII, FIG. 7D
Excerpt: Then, we prepared RNA and protein lysates from the transfected cells. We confirmed the identity of the lysates by RT-PCR (FIG. 7C). Next, we evaluated the phosphorylation status of both mutants. Because SY5Y cells expressed endogenous WT-EGFR (21, 22), we used anti-GFP antibody to immunoprecipitate the mutant EGFR polypeptides.

C#Cc1cccc(Nc2ncnc3cc(OCCOC)c(OCCOC)cc23)c1 [erlotinib]
sensitivity of cancer cells with EGFRvIII expression [1]: not as sensitive

COc1cc2ncnc(Nc3ccc(F)c(Cl)c3)c2cc1OCCCN1CCOCC1 [gefitinib]
patient response [2]: dramatic response

EGFRΔ768: truncated EGFR, in-frame deletion from nucleotide 102 of exon 2 to nucleotide 869 of exon 7
phosphorylation in the absence of ligand (versus WT-EGFR) (NIH 3T3 cells): constitutively active
autophosphorylation level, difference versus EGFRvIII (SY5Y): ~40%
